Assay results published in patent US9409952B2, “Peptide-compound cyclization method” (Chugai Seiyaku Kabushiki Kaisha, priority 2011, dated 2016).
Read-outs that look alike come from different tables or passages of the source. Starred links: 1 amine or outer side, 2 acyl side, 3 side chain; linkers in the order of their positions; H or OH if unused. Positions of bridges follow the written chain, without caps; N, C: chain ends. Non-standard residues stand in square brackets, D forms with d. Residues, ends and D or L forms follow the SMILES beside them. ξ: configuration not given here. *: point of attachment. NMeF = CN[C@@H](Cc1ccccc1)C(=O)O; NMeI = CC[C@H](C)[C@H](NC)C(=O)O; NMeβAla = CN(CCC(=O)[*:2])[*:1]; NMeξIle = CC[C@H](C)C(NC)C(=O)O; NMeL = CN[C@@H](CC(C)C)C(=O)O; NMeV = CN[C@H](C(=O)O)C(C)C; NMeA = CN[C@@H](C)C(=O)O; Piperidide = C1CCN(*)CC1; dNMeA = CN[C@H](C)C(=O)O; ξD = NC(CC(=O)O)C(=O)O; ξL = CC(C)CC(N)C(=O)O; ξT = CC(O)C(N)C(=O)O; Sar = CNCC(=O)O; tBu = CC(C)(C)*

Experiments:
[1] = PAMPA (parallel artificial membrane permeability assay); type: in vitro ADME; details: PAMPA
Summary of the method: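 Artificial membrane was 10% (w/v) egg lecithin plus 0.5% (w/v) cholesterol in dodecane on a PVDF filter. A 10 mM DMSO stock was added at 0.5% (v/v) to donor buffer (50 mM MOPSO, pH 6.5, 5.0% glycocholic acid). After 18 h at 37 °C, LC/MS or LC/UV gave donor and acceptor levels for Pe.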

[2] = Metabolic stability in human hepatic microsome; type: in vitro ADME; details: human
[3] = microsomes, pH 7.4, CL NADPH(+)
[4] = membrane permeation rate (Pe), 50 mM MOPSO buffer pH 6.5 with 5.0% glycocholic acid, 37° C., 18 hours, read-out: iPAMPA Pe
[5] = human hepatic microsomes, pH 7.4, human hepatic microsome, NADPH(+), read-out: CL NADPH(+)

Compound	Papp at 18 hours, 50 µM ([1]; pH 6.5)	microsomal CLint at 1 uM [2, 3]	Papp at 18 hours, 50 µM [1, 4]	microsomal CLint at 1 uM [2, 5]
CC[C@H](C)[C@H](NC(=O)[C@H](CC(C)C)NC(=O)[C@@H]1CC(=O)N[C@@H](C)C(=O)N[C@@H](CC(C)C)C(=O)N[C@@H](Cc2ccccc2)C(=O)N[C@@H](CC(C)C)C(=O)N[C@@H]([C@@H](C)O)C(=O)N2CCC[C@H]2C(=O)N(C)CC(=O)N[C@@H](Cc2ccccc2)C(=O)N[C@@H](C(C)C)C(=O)N(C)[C@@H](C)C(=O)N1)C(=O)N1CCCCC1 [DP-41] (ALFLTP[Sar]FV[NMeA]DLI-Piperidide; lactam N-11)	11 ×10⁻⁶ cm/s	72 µL/min/mg		
CC[C@H](C)[C@H](NC(=O)[C@@H]1CC(=O)N[C@@H](C)C(=O)N[C@@H]([C@@H](C)O)C(=O)N[C@@H](CC(C)C)C(=O)N2CCC[C@H]2C(=O)N[C@@H](Cc2ccccc2)C(=O)N(C)[C@@H](Cc2ccccc2)C(=O)N(C)[C@@H](C(C)C)C(=O)N[C@@H](C)C(=O)N(C)[C@@H](CC(C)C)C(=O)N1)C(=O)N1CCCCC1 [DP-44] (ATLPF[NMeF][NMeV]A[NMeL]DI-Piperidide; lactam N-10)	20 ×10⁻⁶ cm/s	59 µL/min/mg		
CC[C@H](C)[C@H]1C(=O)N[C@@H](C)C(=O)N(C)[C@@H](Cc2ccccc2)C(=O)N[C@@H]([C@@H](C)O)C(=O)N(C)CC(=O)N(C)[C@@H](Cc2ccccc2)C(=O)N(C)[C@@H](CC(C)C)C(=O)N[C@H](C(=O)N2CCCCC2)CC(=O)N(C)CCC(=O)N[C@@H](CC(C)C)C(=O)N(C)[C@@H](CC(C)C)C(=O)N1C [DP-48] ([NMeβAla]L[NMeL][NMeI]A[NMeF]T[Sar][NMeF][NMeL]D-Piperidide; lactam N-11)	33 ×10⁻⁶ cm/s	32 µL/min/mg		
CC[C@H](C)[C@H]1C(=O)N(C)[C@@H](CC(C)C)C(=O)N[C@H](C(=O)N2CCCCC2)CC(=O)N(C)[C@H](C)C(=O)N(C)[C@@H](CC(C)C)C(=O)N[C@@H](CC(C)C)C(=O)N(C)[C@@H](Cc2ccccc2)C(=O)N[C@@H](COC(C)(C)C)C(=O)N(C)[C@@H](Cc2ccccc2)C(=O)N[C@@H]([C@@H](C)O)C(=O)N(C)[C@@H](C)C(=O)N1C [DP-49] ([dNMeA][NMeL]L[NMeF]S(tBu)[NMeF]T[NMeA][NMeI][NMeL]D-Piperidide; lactam N-11)	18 ×10⁻⁶ cm/s	51 µL/min/mg		
CC(C)C[C@H]1C(=O)N(C)[C@@H](CC(C)C)C(=O)NC(C(C)O)C(=O)N(C)[C@@H](Cc2ccccc2)C(=O)NCC(=O)N(C)[C@@H](C(C)C)C(=O)N[C@@H](Cc2ccccc2)C(=O)NC(C(=O)N2CCCCC2)CC(=O)N(C)CCC(=O)N[C@@H](COC(C)(C)C)C(=O)N1C (stereo partly drawn) [DP-50] ([NMeβAla]S(tBu)[NMeL][NMeL][ξT][NMeF]G[NMeV]F[ξD]-Piperidide; lactam N-10)	35 ×10⁻⁶ cm/s	80 µL/min/mg		
CC[C@H](C)[C@@H]1NC(=O)[C@H](C)N(C)C(=O)[C@@H](C)N(C)C(=O)C[C@@H](C(=O)N2CCCCC2)NC(=O)[C@H](CC(C)C)N(C)C(=O)[C@H](C)N(C)C(=O)[C@H](Cc2ccccc2)N(C)C(=O)[C@H]([C@@H](C)O)NC(=O)[C@H](Cc2ccccc2)N(C)C(=O)[C@H](CC(C)C)N(C)C1=O [DP-51] ([dNMeA][NMeA]I[NMeL][NMeF]T[NMeF][NMeA][NMeL]D-Piperidide; lactam N-10)	34 ×10⁻⁶ cm/s	96 µL/min/mg		
CC(C)C[C@H]1C(=O)NCC(=O)N[C@H](C(=O)N2CCCCC2)CC(=O)N[C@H](C)C(=O)N[C@@H]([C@@H](C)O)C(=O)N(C)[C@@H](C)C(=O)N(C)[C@@H](Cc2ccccc2)C(=O)N[C@@H](COC(C)(C)C)C(=O)N(C)[C@@H](Cc2ccccc2)C(=O)N1C [DP-52] ([dA]T[NMeA][NMeF]S(tBu)[NMeF][NMeL]GD-Piperidide; lactam N-9)	23 ×10⁻⁶ cm/s	136 µL/min/mg		
CC[C@H](C)[C@H]1C(=O)N[C@H](C(=O)N2CCCCC2)CC(=O)N[C@H](C)C(=O)N[C@@H]([C@@H](C)O)C(=O)N(C)[C@@H](Cc2ccccc2)C(=O)N[C@@H](CC(C)C)C(=O)N(C)[C@@H](C)C(=O)N[C@@H](C(C)C)C(=O)N[C@@H](Cc2ccccc2)C(=O)N(C)[C@@H](CC(C)C)C(=O)N[C@@H](CC(C)C)C(=O)NCC(=O)N1C [DP-53] ([dA]T[NMeF]L[NMeA]VF[NMeL]LG[NMeI]D-Piperidide; lactam N-12)	30 ×10⁻⁶ cm/s	60 µL/min/mg		
CC[C@H](C)[C@H]1C(=O)N(C)[C@@H](Cc2ccccc2)C(=O)NCC(=O)N[C@@H]([C@@H](C)O)C(=O)N[C@@H](Cc2ccccc2)C(=O)N(C)[C@@H](CC(C)C)C(=O)N2CCC[C@H]2C(=O)N[C@H](C(=O)N2CCCCC2)CC(=O)N[C@H](C)C(=O)N[C@@H](CC(C)C)C(=O)N(C)[C@@H](C)C(=O)N[C@@H](CC(C)C)C(=O)N1C [DP-54] ([dA]L[NMeA]L[NMeI][NMeF]GTF[NMeL]PD-Piperidide; lactam N-12)	15 ×10⁻⁶ cm/s	13 µL/min/mg		
CC[C@H](C)[C@H]1C(=O)N[C@@H](C)C(=O)N[C@H](C(=O)N2CCCCC2)CC(=O)N[C@H](C(C)C)C(=O)N[C@@H](Cc2ccccc2)C(=O)N(C)CC(=O)N[C@@H](CC(C)C)C(=O)N[C@@H](Cc2ccccc2)C(=O)N2CCC[C@H]2C(=O)N[C@@H]([C@@H](C)O)C(=O)N[C@@H](COC(C)(C)C)C(=O)N(C)[C@@H](CC(C)C)C(=O)N1C [DP-55] ([dV]F[Sar]LFPTS(tBu)[NMeL][NMeI]AD-Piperidide; lactam N-12)	21 ×10⁻⁶ cm/s	79 µL/min/mg		
CC[C@H](C)[C@H]1C(=O)N[C@H](C(=O)N2CCCCC2)CC(=O)N[C@H](C(C)C)C(=O)N[C@@H]([C@@H](C)O)C(=O)N(C)CC(=O)N[C@@H](CC(C)C)C(=O)N2CCC[C@H]2C(=O)N(C)[C@@H](C(C)C)C(=O)N[C@@H](Cc2ccccc2)C(=O)N(C)[C@@H](Cc2ccccc2)C(=O)N(C)[C@@H](CC(C)C)C(=O)N[C@@H](C)C(=O)N1C [DP-56] ([dV]T[Sar]LP[NMeV]F[NMeF][NMeL]A[NMeI]D-Piperidide; lactam N-12)	30 ×10⁻⁶ cm/s	43 µL/min/mg		
CC[C@H](C)[C@H]1C(=O)N[C@@H](CC(C)C)C(=O)N2CCC[C@H]2C(=O)N[C@@H]([C@@H](C)O)C(=O)N(C)[C@@H](C)C(=O)N[C@@H](Cc2ccccc2)C(=O)N[C@H](C(=O)N2CCCCC2)CC(=O)N(C)[C@@H](C)C(=O)N[C@@H](Cc2ccccc2)C(=O)N(C)[C@@H](CC(C)C)C(=O)N[C@@H](COC(C)(C)C)C(=O)NCC(=O)N1C [DP-57] ([NMeA]F[NMeL]S(tBu)G[NMeI]LPT[NMeA]FD-Piperidide; lactam N-12)	26 ×10⁻⁶ cm/s	23 µL/min/mg		
CC[C@H](C)[C@H]1C(=O)N[C@@H](C)C(=O)N[C@H](C(=O)N2CCCCC2)CC(=O)N(C)[C@@H](C)C(=O)N[C@@H]([C@@H](C)O)C(=O)N(C)[C@@H](Cc2ccccc2)C(=O)N[C@@H](CC(C)C)C(=O)N2CCC[C@H]2C(=O)N(C)[C@@H](C(C)C)C(=O)N[C@@H](Cc2ccccc2)C(=O)N(C)CC(=O)N(C)[C@@H](CC(C)C)C(=O)N1C [DP-58] ([NMeA]T[NMeF]LP[NMeV]F[Sar][NMeL][NMeI]AD-Piperidide; lactam N-12)			20 ×10⁻⁶ cm/s	27 µL/min/mg
CC[C@H](C)[C@H]1C(=O)NCC(=O)N(C)[C@@H](Cc2ccccc2)C(=O)N[C@@H]([C@@H](C)O)C(=O)N(C)[C@@H](C)C(=O)N[C@@H](CC(C)C)C(=O)N[C@H](C(=O)N2CCCCC2)CC(=O)N(C)CCC(=O)N(C)[C@@H](C)C(=O)N[C@@H](Cc2ccccc2)C(=O)N[C@@H](C(C)C)C(=O)N(C)[C@@H](CC(C)C)C(=O)N1C [DP-59] ([NMeβAla][NMeA]FV[NMeL][NMeI]G[NMeF]T[NMeA]LD-Piperidide; lactam N-12)	21 ×10⁻⁶ cm/s	65 µL/min/mg		
CC[C@H](C)C1C(=O)N[C@H](C(=O)N2CCCCC2)CC(=O)N(C)CC(=O)N(C)CC(=O)N[C@@H]([C@@H](C)O)C(=O)N(C)[C@@H](Cc2ccccc2)C(=O)N(C)[C@@H](CC(C)C)C(=O)N[C@@H](COC(C)(C)C)C(=O)N(C)[C@@H](CC(C)C)C(=O)N1C (stereo partly drawn) [DP-60] ([Sar][Sar]T[NMeF][NMeL]S(tBu)[NMeL][NMeξIle]D-Piperidide; lactam N-9)	42 ×10⁻⁶ cm/s	145 µL/min/mg		
CC[C@H](C)[C@H]1C(=O)N(C)[C@@H](Cc2ccccc2)C(=O)N[C@H](C(=O)N2CCCCC2)CC(=O)N(C)CCC(=O)NC(CC(C)C)C(=O)N(C)[C@@H](Cc2ccccc2)C(=O)N(C)[C@@H](CC(C)C)C(=O)N(C)[C@@H](C(C)C)C(=O)N[C@@H](C)C(=O)N(C)[C@@H](C)C(=O)N[C@@H]([C@@H](C)O)C(=O)N(C)CC(=O)N1C (stereo partly drawn) [DP-61] ([NMeβAla][ξL][NMeF][NMeL][NMeV]A[NMeA]T[Sar][NMeI][NMeF]D-Piperidide; lactam N-12)	19 ×10⁻⁶ cm/s	47 µL/min/mg		
CC[C@H](C)[C@H]1C(=O)NCC(=O)N[C@H](C(=O)N2CCCCC2)CC(=O)N(C)[C@H](C)C(=O)N[C@@H](Cc2ccccc2)C(=O)N(C)[C@@H](CC(C)C)C(=O)N[C@@H](COC(C)(C)C)C(=O)N[C@@H](Cc2ccccc2)C(=O)N2CCC[C@H]2C(=O)N[C@@H]([C@@H](C)O)C(=O)N[C@@H](CC(C)C)C(=O)N(C)[C@@H](C)C(=O)N1C [DP-62] ([dNMeA]F[NMeL]S(tBu)FPTL[NMeA][NMeI]GD-Piperidide; lactam N-12)	33 ×10⁻⁶ cm/s	22 µL/min/mg		
CC[C@H](C)[C@H]1C(=O)N(C)[C@@H](C)C(=O)N[C@@H](COC(C)(C)C)C(=O)N(C)[C@@H](CC(C)C)C(=O)N(C)[C@@H](CC(C)C)C(=O)N[C@H](C(=O)N2CCCCC2)CC(=O)N(C)[C@H](C)C(=O)N(C)[C@@H](Cc2ccccc2)C(=O)N[C@@H](C)C(=O)N(C)[C@@H](CC(C)C)C(=O)N[C@@H]([C@@H](C)O)C(=O)N[C@@H](Cc2ccccc2)C(=O)N1C [DP-63] ([dNMeA][NMeF]A[NMeL]TF[NMeI][NMeA]S(tBu)[NMeL][NMeL]D-Piperidide; lactam N-12)			17 ×10⁻⁶ cm/s	58 µL/min/mg
